According to ChEMBL document CHEMBL5223133, “A review of MMP-2 structures and binding mode analysis of its inhibitors to strategize structure-based drug design” (Bioorg Med Chem, 2022):
Active and inactive are the calls of the source. The rule behind the calls is not given here.

Tests used:
[1] = target: T1, 72 kDa type IV collagenase (Homo sapiens, UniProt P08253); test: Inhibition of human MMP2
Target sequence in this assay (P08253 whole entry): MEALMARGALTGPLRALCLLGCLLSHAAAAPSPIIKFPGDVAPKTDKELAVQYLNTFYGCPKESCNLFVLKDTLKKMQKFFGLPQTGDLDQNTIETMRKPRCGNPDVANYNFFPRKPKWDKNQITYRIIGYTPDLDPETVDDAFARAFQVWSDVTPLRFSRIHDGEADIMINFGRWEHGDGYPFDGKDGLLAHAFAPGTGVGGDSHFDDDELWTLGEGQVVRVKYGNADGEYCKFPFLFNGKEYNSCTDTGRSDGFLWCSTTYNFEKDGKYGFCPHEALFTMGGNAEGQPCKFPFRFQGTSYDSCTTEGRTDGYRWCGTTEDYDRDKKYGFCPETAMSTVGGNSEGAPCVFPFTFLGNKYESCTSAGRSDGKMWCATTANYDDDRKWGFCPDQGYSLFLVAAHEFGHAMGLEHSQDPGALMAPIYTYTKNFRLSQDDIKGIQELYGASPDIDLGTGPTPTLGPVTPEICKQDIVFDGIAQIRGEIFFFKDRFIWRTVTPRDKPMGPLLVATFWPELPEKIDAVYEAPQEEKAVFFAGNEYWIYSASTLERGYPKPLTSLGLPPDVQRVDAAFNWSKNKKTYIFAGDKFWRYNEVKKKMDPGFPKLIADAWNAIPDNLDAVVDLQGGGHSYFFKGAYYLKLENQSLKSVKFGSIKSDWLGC

[2] = target: T1, 72 kDa type IV collagenase; test: Inhibition of MMP2 (unknown origin)
Target sequence in this assay (P08253 whole entry): as above

[3] = target: T1, 72 kDa type IV collagenase; test: Inhibition of MMP2 (unknown origin) gelatinase activity at 5 to 20 uM incubated for 24 hrs by modified zymography assay; conditions: dose 5-20 µM
Target sequence in this assay (P08253 110-660 limits assumed): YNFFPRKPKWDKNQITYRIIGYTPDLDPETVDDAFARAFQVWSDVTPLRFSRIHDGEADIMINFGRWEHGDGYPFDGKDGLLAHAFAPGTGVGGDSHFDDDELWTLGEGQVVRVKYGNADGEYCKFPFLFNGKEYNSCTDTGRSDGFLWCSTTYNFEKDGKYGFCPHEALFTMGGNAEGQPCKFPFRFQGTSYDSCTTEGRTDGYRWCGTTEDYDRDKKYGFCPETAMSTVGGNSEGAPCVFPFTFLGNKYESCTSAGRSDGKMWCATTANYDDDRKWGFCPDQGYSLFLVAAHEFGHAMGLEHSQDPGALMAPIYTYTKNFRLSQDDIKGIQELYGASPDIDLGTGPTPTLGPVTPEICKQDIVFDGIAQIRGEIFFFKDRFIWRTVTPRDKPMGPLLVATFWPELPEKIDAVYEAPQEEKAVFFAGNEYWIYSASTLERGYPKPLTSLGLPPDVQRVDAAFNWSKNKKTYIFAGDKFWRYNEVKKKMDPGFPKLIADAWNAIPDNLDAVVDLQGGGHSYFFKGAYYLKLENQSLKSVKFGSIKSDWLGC

[4] = target: Matrix metalloproteinase-9 (Homo sapiens) (UniProt P14780); test: Inhibition of MMP9 (unknown origin) gelatinase activity at 5 to 20 uM incubated for 24 hrs by modified zymography assay; conditions: dose 5-20 µM
Chain of Matrix metalloproteinase-9 (Homo sapiens) (P14780 whole entry): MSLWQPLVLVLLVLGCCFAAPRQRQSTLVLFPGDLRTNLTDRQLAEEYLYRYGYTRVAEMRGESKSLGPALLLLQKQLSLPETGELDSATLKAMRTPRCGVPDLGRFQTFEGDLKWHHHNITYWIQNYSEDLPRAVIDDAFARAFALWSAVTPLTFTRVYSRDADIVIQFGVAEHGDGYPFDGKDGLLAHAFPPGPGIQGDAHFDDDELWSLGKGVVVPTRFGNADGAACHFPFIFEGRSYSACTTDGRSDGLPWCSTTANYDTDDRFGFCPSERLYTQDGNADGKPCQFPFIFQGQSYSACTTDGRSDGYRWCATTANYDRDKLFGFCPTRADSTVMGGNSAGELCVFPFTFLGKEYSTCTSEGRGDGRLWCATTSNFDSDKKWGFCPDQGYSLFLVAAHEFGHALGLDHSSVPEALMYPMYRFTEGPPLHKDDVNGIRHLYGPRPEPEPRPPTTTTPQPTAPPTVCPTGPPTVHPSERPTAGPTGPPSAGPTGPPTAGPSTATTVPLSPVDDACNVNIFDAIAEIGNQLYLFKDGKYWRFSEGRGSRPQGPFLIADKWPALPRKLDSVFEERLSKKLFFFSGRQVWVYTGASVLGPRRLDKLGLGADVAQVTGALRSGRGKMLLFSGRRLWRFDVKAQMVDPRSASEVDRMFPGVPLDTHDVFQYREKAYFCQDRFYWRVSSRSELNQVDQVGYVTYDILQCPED

[5] = target: T1, 72 kDa type IV collagenase; test: Inhibition of MMP2 (unknown origin) gelatinase activity at >= 7.5 uM incubated for 24 hrs by modified zymography assay
Target sequence in this assay (P08253 110-660 limits assumed): as the sequence (P08253 110-660 limits assumed) above

[6] = target: Matrix metalloproteinase-9 (Homo sapiens) (UniProt P14780); test: Inhibition of MMP9 (unknown origin) gelatinase activity at >= 7.5 uM incubated for 24 hrs by modified zymography assay
[7] = tested on: A549; test: Anticancer activity against human A549 cells assessed as cell survival measured after 48 hrs by MTT assay; format: functional, cell-based; conditions: A549, 48 h

CCCCCCCC/C=C/CCCCCCCC(=O)O [ELAIDIC ACID]
IC50 [1]: 2000 nM

Cc1cc(=O)c(O)c(C(=O)NCc2ccc(-c3ccc(C#N)cc3)cc2)o1
IC50 [2]: 9300 nM

N#Cc1ccc(Oc2ccc(S(=O)(=O)N3CCc4c([nH]c5ccccc45)C3C(=O)NO)cc2)cc1 (stereo unspecified)
IC50 [2]: 150 nM

c1cc2nc(c1)CNCCNCCCNCCNC2
inhibition [3]: Active
inhibition [4]: Active
inhibition [5]: 100%
inhibition [6]: 100%

Cc1cc(=O)c(O)c(C(=O)NCc2ccc(-c3ccccc3)cc2)o1
IC50 [2]: 610 nM

O=C(NCc1ccco1)Nc1c[nH]c2cccnc2c1=O
IC50 [2]: 5000 nM

c1cc2nc(c1)CNCCNCCNCCNC2
inhibition [3]: Active
inhibition [4]: Active
inhibition [5]: 100%
inhibition [6]: 100%

CNC(=O)[C@@H](NC(=O)c1ccc(-c2ccc(OCc3ccn[nH]3)cn2)o1)C1CCCCC1
IC50 [2]: 36 nM

CCCCCCCC/C=C\CCCCCCCC(=O)NNC(=O)[C@H](Cc1cc2ccccc2[nH]1)NC(=O)[C@@H](CC(=O)NO)CC(C)C
IC50 [1]: 27 nM

O=C(NO)C1CN(C(=O)c2ccccc2)CCCN1C(=O)/C=C/c1ccc(O)c(O)c1 (stereo unspecified)
IC50 [7]: 8200 nM
